Measured values reported in ChEMBL document CHEMBL1909046, “DrugMatrix in vitro pharmacology data”.

Experiments:
Cytochrome P450 1A2 = target: T1, Cytochrome P450 1A2 (Homo sapiens, UniProt P05177); conditions: bti-tn-5b1-4; further: in other assays of this panel Not Active means under 50% inhibition at 10 µM
T1 sequence (P05177 whole entry): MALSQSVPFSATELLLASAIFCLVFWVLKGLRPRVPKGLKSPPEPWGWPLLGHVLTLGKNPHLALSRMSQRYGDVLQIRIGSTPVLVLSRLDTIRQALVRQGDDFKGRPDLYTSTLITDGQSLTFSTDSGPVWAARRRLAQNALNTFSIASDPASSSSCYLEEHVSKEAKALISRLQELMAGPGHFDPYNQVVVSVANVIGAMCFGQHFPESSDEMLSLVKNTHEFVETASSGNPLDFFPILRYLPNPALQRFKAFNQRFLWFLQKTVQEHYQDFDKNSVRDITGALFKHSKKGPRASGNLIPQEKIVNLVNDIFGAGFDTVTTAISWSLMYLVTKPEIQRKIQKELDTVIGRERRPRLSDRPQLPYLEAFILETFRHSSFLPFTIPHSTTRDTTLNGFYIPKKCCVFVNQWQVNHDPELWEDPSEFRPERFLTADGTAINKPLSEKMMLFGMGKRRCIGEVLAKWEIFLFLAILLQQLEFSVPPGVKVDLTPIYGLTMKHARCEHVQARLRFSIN

Adenosine receptor A1 = target: T2, Adenosine receptor A1 (Homo sapiens, UniProt P30542); format: cell membranes, CHO, Membrane; conditions: cho;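 further: radioligand binding assay at the adenosine A1 receptor, with DPCPX serving as the labelled ligand; in other assays of this panel Not Active means under 50% inhibition at 10 µM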
T2 sequence (P30542 whole entry): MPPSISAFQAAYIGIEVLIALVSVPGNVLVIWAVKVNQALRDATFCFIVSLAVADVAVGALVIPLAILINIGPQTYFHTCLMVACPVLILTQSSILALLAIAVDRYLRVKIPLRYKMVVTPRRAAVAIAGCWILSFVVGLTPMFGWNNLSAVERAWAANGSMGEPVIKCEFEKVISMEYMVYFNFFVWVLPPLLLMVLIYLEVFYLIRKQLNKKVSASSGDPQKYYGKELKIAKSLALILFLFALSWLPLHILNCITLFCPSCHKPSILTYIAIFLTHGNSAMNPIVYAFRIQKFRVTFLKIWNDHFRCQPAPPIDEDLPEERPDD

[1] = target: T3, Vasoactive intestinal polypeptide receptor 1 (Homo sapiens, UniProt P32241); format: cell membranes, Membrane; conditions: ht-29; further: in other assays of this panel Not Active means under 50% inhibition at 10 µM
T3 sequence (P32241 whole entry): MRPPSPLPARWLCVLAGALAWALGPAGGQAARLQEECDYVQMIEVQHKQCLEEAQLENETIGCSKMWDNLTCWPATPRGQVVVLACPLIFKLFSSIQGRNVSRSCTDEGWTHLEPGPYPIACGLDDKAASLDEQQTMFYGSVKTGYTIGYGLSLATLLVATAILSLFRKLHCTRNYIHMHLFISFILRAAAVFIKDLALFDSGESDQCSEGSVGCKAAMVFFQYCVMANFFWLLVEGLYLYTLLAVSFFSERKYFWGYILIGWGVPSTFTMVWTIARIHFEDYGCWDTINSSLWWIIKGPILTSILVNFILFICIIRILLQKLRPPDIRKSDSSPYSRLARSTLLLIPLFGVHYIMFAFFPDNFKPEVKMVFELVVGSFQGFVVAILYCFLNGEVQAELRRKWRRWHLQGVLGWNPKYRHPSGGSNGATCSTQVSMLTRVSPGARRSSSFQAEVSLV

[2] = target: Beta-3 adrenergic receptor (Homo sapiens, UniProt P13945); test: DRUGMATRIX: Adrenergic beta3 radioligand binding (ligand: [125I] Cyanopindolol); format: cell membranes, HEK293, Membrane; conditions: Not Active = under 50% inhibition at 10 µM
[3] = DRUGMATRIX: Purinergic P2X radioligand binding (ligand: [3H] alpha, beta-Methylene-ATP); format: cell membranes, Oryctolagus cuniculus, New Zealand albino, Urinary bladder, Membrane; conditions: Not Active = under 50% inhibition at 10 µM
Adenosine receptor A2a = Adenosine receptor A2a (Homo sapiens, UniProt P29274); test: DRUGMATRIX: Adenosine A2A radioligand binding (ligand: […]); format: cell membranes, Membrane; conditions: hek293; Not Active = under 50% inhibition at 10 µM
Melanocortin receptor 3 = Melanocortin receptor 3 (Homo sapiens, UniProt P41968); format: cell membranes, HEK293, Membrane; conditions: hek293; further: in other assays of this panel Not Active means under 50% inhibition at 10 µM
[4] = target: Tyrosine-protein kinase Fyn (Homo sapiens, UniProt P06241); test: biochemical; format: cell-based, Insect cells
Chain of Tyrosine-protein kinase Fyn (P06241 whole entry): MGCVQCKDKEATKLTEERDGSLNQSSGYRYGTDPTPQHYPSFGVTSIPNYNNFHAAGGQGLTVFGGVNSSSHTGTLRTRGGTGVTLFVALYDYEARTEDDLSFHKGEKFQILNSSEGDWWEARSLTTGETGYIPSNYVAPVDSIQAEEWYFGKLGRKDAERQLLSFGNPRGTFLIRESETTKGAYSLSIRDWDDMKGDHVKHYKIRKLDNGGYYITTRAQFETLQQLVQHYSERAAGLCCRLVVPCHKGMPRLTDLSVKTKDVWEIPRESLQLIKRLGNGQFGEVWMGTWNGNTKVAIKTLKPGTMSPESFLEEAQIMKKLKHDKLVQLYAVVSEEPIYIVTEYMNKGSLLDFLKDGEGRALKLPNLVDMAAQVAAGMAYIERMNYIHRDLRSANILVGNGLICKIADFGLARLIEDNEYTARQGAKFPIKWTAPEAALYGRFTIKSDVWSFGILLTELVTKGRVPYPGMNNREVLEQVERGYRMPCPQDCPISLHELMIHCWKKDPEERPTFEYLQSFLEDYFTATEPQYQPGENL

Chain of Adenosine receptor A2a (P29274 whole entry): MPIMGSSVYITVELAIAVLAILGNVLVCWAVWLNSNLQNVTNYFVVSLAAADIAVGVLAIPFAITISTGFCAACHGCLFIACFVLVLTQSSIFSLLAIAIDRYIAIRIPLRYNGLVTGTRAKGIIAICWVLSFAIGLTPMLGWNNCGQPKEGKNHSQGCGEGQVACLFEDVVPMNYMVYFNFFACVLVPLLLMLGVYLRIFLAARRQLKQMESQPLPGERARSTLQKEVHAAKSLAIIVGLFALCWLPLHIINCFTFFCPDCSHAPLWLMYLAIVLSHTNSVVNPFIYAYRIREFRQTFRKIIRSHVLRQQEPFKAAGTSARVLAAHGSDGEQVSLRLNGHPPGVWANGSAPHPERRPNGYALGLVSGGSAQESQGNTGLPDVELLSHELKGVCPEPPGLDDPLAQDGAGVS
Chain of Melanocortin receptor 3 (P41968 whole entry): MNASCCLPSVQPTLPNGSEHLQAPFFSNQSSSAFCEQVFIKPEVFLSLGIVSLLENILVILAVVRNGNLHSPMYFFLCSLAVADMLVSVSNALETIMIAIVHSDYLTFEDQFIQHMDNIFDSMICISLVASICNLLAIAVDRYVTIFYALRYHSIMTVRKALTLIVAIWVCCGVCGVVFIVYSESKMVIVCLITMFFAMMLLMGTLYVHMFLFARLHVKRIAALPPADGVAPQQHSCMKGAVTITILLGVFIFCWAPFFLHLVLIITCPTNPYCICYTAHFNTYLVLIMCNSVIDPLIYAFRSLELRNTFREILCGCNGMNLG
Chain of Beta-3 adrenergic receptor (P13945 whole entry): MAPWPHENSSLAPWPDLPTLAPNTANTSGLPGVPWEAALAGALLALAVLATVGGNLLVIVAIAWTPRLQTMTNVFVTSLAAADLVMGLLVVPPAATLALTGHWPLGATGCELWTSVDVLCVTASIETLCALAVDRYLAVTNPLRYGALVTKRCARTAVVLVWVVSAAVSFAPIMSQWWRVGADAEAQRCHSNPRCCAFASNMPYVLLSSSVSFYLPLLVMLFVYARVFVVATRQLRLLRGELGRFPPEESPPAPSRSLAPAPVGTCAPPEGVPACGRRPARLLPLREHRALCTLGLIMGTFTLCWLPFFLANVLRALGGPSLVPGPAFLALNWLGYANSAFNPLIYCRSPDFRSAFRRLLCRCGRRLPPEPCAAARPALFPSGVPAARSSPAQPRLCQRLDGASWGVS

| Structure (SMILES) | IC50 (Cytochrome P450 1A2) | Ki (Cytochrome P450 1A2) | IC50 (Adenosine receptor A1) | IC50 [1] | IC50 ([2]; hek293) | IC50 [3] | Ki [3] | IC50 (Adenosine receptor A2a) | IC50 (Melanocortin receptor 3) | IC50 ([4]; insect cells) | Ki (Adenosine receptor A1) | Ki [1] | Ki ([2]; hek293) | Ki (Adenosine receptor A2a) | Ki (Melanocortin receptor 3) | Ki ([4]; insect cells) | IC50 ([2]; read-out: IC50) [µM] | Ki ([2]; read-out: Ki) [µM] | IC50 ([4]; read-out: IC50) [µM] |
| --- | --- | --- | --- | --- | --- | --- | --- | --- | --- | --- | --- | --- | --- | --- | --- | --- | --- | --- | --- |
| CCOC(=O)C1=C(COCCN)NC(C)=C(C(=O)OC)C1c1ccccc1Cl (configuration not stated) [AMLODIPINE] | Not Active | Not Active | Not Active | Not Active | Not Active | Not Active | Not Active | Not Active | Not Active | Not Active |  |  |  |  |  |  |  |  |  |
| COc1ccc(C[C@H]2NC[C@H](O)[C@H]2OC(C)=O)cc1 [ANISOMYCIN] | Not Active | Not Active | Not Active | Not Active | Not Active | Not Active | Not Active | Not Active | Not Active | Not Active | Not Active | Not Active | Not Active | Not Active | Not Active | Not Active |  |  |  |
| Nc1ncn([C@@H]2O[C@H](CO)[C@@H](O)[C@H]2O)c(=O)n1 [AZACITIDINE] | Not Active | Not Active | Not Active | Not Active | Not Active | Not Active | Not Active | Not Active | Not Active | Not Active |  |  |  |  |  |  |  |  |  |
| CN(C)C(=O)Oc1cc(OC(=O)N(C)C)cc(C(O)CNC(C)(C)C)c1 (configuration not stated) [BAMBUTEROL] | Not Active | Not Active | Not Active | Not Active | Not Active | Not Active | Not Active | Not Active | Not Active | Not Active |  |  |  |  |  |  |  |  |  |
| CNCCc1ccccn1 [BETAHISTINE] | Not Active | Not Active | Not Active | Not Active | Not Active | Not Active | Not Active | Not Active | Not Active | Not Active |  |  |  |  |  |  |  |  |  |
| CC(C)C(Br)C(=O)NC(N)=O (configuration not stated) [BROMISOVALUM] | Not Active | Not Active | Not Active | Not Active | Not Active | Not Active | Not Active | Not Active | Not Active | Not Active |  |  |  |  |  |  |  |  |  |
| CCCC1O[C@@H]2C[C@H]3[C@@H]4CCC5=CC(=O)C=C[C@]5(C)[C@H]4[C@@H](O)C[C@]3(C)[C@]2(C(=O)CO)O1 (some centres not stated) [BUDESONIDE] | Not Active | Not Active | Not Active | Not Active | Not Active | Not Active | Not Active | Not Active | Not Active | Not Active |  |  |  |  |  |  |  |  |  |
| CC(NC(C)(C)C)C(=O)c1cccc(Cl)c1 (configuration not stated) [BUPROPION] | Not Active | Not Active | Not Active | Not Active | Not Active | Not Active | Not Active | Not Active | Not Active | Not Active |  |  |  |  |  |  |  |  |  |
| CN(Cc1ccc(C(C)(C)C)cc1)Cc1cccc2ccccc12 [BUTENAFINE] | Not Active | Not Active | Not Active | Not Active | Not Active | Not Active | Not Active | Not Active | Not Active | Not Active |  |  |  |  |  |  |  |  |  |
| C[C@H](CS)C(=O)N1CCC[C@H]1C(=O)O [CAPTOPRIL] | Not Active | Not Active | Not Active | Not Active | Not Active | Not Active | Not Active | Not Active | Not Active | Not Active |  |  |  |  |  |  |  |  |  |
| Cc1ccc(-c2cc(C(F)(F)F)nn2-c2ccc(S(N)(=O)=O)cc2)cc1 [CELECOXIB] | Not Active | Not Active | Not Active | Not Active |  | Not Active | Not Active | Not Active | Not Active | Not Active |  |  |  |  |  |  | 16.1 | 12.1 |  |
| O=C(O)CCCc1ccc(N(CCCl)CCCl)cc1 [CHLORAMBUCIL] | Not Active | Not Active | Not Active | Not Active | Not Active | Not Active | Not Active | Not Active | Not Active | Not Active |  |  |  |  |  |  |  |  |  |
| C[C@H](CCC(=O)O)[C@H]1CC[C@H]2[C@@H]3[C@H](O)C[C@@H]4C[C@H](O)CC[C@]4(C)[C@H]3C[C@H](O)[C@]12C [CHOLIC ACID] | Not Active | Not Active | Not Active | Not Active | Not Active | Not Active | Not Active | Not Active | Not Active | Not Active |  |  |  |  |  |  |  |  |  |
| Cc1cc(C2CCCCC2)n(O)c(=O)c1 [CICLOPIROX] | Not Active | Not Active | Not Active | Not Active | Not Active | Not Active | Not Active | Not Active | Not Active | Not Active |  |  |  |  |  |  |  |  |  |
| CC1=C2C(=CO[C@H](C)[C@H]2C)C(O)=C(C(=O)O)C1=O [CITRININ] | Not Active | Not Active | Not Active | Not Active | Not Active | Not Active | Not Active | Not Active | Not Active | Not Active |  |  |  |  |  |  |  |  |  |
| CC(C)(C)NCC(O)c1cc(Cl)c(N)c(Cl)c1 (configuration not stated) [CLENBUTEROL] | Not Active | Not Active | Not Active | Not Active | Not Active | Not Active | Not Active | Not Active | Not Active | Not Active |  |  |  |  |  |  |  |  |  |
| Clc1cccc(Cl)c1NC1=NCCN1 [CLONIDINE] | Not Active | Not Active | Not Active | Not Active | Not Active | Not Active | Not Active | Not Active | Not Active | Not Active |  |  |  |  |  |  |  |  |  |
| Cc1cc(C(C#N)c2ccc(Cl)cc2)c(Cl)cc1NC(=O)c1cc(I)cc(I)c1O (configuration not stated) [CLOSANTEL] | Not Active | Not Active | Not Active | Not Active | Not Active | Not Active | Not Active | Not Active | Not Active |  |  |  |  |  |  |  |  |  | 0.939 |
| Cc1onc(-c2ccccc2Cl)c1C(=O)N[C@@H]1C(=O)N2[C@@H]1SC(C)(C)[C@@H]2C(=O)O [CLOXACILLIN] | Not Active | Not Active | Not Active | Not Active | Not Active | Not Active | Not Active | Not Active | Not Active | Not Active |  |  |  |  |  |  |  |  |  |
| CC1CC(OC(=O)C(O)c2ccccc2)CC(C)(C)C1 (configuration not stated) [CYCLANDELATE] | Not Active | Not Active | Not Active | Not Active | Not Active | Not Active | Not Active | Not Active | Not Active | Not Active |  |  |  |  |  |  |  |  |  |
